Measurements reported in US8207142B2, “Inhibitor of DNA methylation” (priority 2001, dated 2012).

Columns and labels:
silenced hph gene = assay: Plate assay, reactivation of the methylation-silenced hph gene (hygromycin resistance), strain N644; assay type: cell-based, Neurospora crassa; details: 2.5-400 nmoles on paper disc
Protocol: FIG. 5 is a series of photographs of plate assays, showing reactivation of the silenced hph gene in Neurospora crassa by Zebularine. N. crassa strain N644 has a single copy of the E. coli hph gene that was silenced by cytosine methylation. The active hph gene confers hygromycin resistance.
Treatments are indicated above each plate; the listed compound was applied to the paper discs in the middle of each plate. With the exception of the “no hygromycin” plate, all plates had 5 mg hygromycin B added in a 5 ml 0.7% agar overlay after 24 hours growth at 32° C. The plates were then incubated an additional two days at the same temperature and photographed.
(§1) Plate tests were performed with solidified medium essentially as previously described (Selker, Proc. Natl. Acad. Sci. USA 95;9430-9435, 1998). In brief, approximately 2,000 N. crassa conidia of the indicated were plated on each plate. Drugs were administered from a 4-mm diameter Whatman™ no. 1 paper disk placed in the middle of each plate shortly after plating.
N. crassa was used to quantitatively examine the effectiveness of Zebularine at reducing or reversing methylation (Selker, Proc. Natl. Acad. Sci. USA, 95:9430-9435, 1998). […]

[1] = system: p16 promoter and p16 exon 2; assay: Continuous long-term treatment of T24 cells, methylation of p16 promoter and p16 exon 2; assay type: cell-based, human; details: 100 μM continuous treatment, Day 14, T24 cells; dropped from ˜96%
[2] = system: human p16 cDNA in EJ6 tumor cells; assay: RT-PCR of p16 gene expression in EJ6 tumor cells growing in mice; assay type: in vivo; details: EJ6 tumor cells in BALB/c nu/nu mice after treatment
Protocol: Total RNA was isolated from the tumors to analyze gene expression using conventional methods. DNA also was isolated, to measure the methylation status of p16 promoter by Ms-SnuPE as described below.
GAPDH mRNA levels were measured to control for the quantity and integrity of the input RNA. The control group represents tumors obtained from mice mock-treated either with 0.45% NaCl via intraperitoneal injection or oral gavage feeding. Results from one of six similar independent tumors are shown for each group in FIG. 15.

N. crassa = assay type: cell-based; details: Neurospora crassa, 400 nmoles
Protocol: Strains with mutations in dim-2 lack all detectable methyltransferase activity. A dim-2 strain (N613) and a wild-type control (N242) were challenged with a high concentration of Zebularine. The concentration of Zebularine is indicated above the plates and was applied to the paper disc as in FIG. 5; no hygromycin was applied to these plates.
as §1
Strains with mutations in dim-2 lack all detectable methyltransferase activity (Kouzminova and Selker, “Dim-2 encodes a DNA-methyltransferase responsible for all known cytosine methylation in Neurospora,” EMBO J. Aug. 1, 2001). In order to examine whether Zebularine toxicity is mediated by its methyltransferase-inhibitory activity, dim-2 strain (N613) and a wild-type control (N242) were challenged with a high concentration (400 nmoles) of Zebularine. No hygromycin was applied to these plates.

[3] = Body weight of tumor-bearing BALB/c nu/nu mice; assay type: in vivo
Protocol: (§2) EJ6 cells (5×10^5/injection) were inoculated subcutaneously into the right and left flanks of male BALB/c nu/nu mice at 4-6 weeks of age (available from Harlan, San Diego, Calif.). Zebularine treatments were initiated after macroscopic (50-200 mm 3) tumor formation (4-6 weeks later). Zebularine (500 mg/kg or 1000 mg/kg) was administered daily via intraperitoneal injection or oral gauage feeding over a period of 18 days. Control mice received 0.45% saline administered via intraperitoneal injection or oral gavage feeding over a period of 18 days. Mice (n=30) were divided into five groups (control group, 500 mg/kg intraperitoneal injection, 500 mg/kg oral, 1000 mg/kg intraperitoneal injection, and 1000 mg/kg oral). Each treatment group consisted of a minimum of five animals (at least 6 tumors per group).
Similarly, each group of mice (n=5 or 6) was weighed at the indicated time points, and average body weight was plotted against days after initial treatment in FIG. 14.

DNMT1 = target: T1, DNMT1 (Homo sapiens, UniProt P26358); assay: Western blot of DNMT1 level in treated T24 cells; assay type: cell-based; details: 500 μM for 48 h
T1 construct: protein extracts were isolated from both treated and untreated T24; endogenous in cells; host or cells: T24 human bladder carcinoma cells (ATCC)
T1 sequence (P26358 whole entry): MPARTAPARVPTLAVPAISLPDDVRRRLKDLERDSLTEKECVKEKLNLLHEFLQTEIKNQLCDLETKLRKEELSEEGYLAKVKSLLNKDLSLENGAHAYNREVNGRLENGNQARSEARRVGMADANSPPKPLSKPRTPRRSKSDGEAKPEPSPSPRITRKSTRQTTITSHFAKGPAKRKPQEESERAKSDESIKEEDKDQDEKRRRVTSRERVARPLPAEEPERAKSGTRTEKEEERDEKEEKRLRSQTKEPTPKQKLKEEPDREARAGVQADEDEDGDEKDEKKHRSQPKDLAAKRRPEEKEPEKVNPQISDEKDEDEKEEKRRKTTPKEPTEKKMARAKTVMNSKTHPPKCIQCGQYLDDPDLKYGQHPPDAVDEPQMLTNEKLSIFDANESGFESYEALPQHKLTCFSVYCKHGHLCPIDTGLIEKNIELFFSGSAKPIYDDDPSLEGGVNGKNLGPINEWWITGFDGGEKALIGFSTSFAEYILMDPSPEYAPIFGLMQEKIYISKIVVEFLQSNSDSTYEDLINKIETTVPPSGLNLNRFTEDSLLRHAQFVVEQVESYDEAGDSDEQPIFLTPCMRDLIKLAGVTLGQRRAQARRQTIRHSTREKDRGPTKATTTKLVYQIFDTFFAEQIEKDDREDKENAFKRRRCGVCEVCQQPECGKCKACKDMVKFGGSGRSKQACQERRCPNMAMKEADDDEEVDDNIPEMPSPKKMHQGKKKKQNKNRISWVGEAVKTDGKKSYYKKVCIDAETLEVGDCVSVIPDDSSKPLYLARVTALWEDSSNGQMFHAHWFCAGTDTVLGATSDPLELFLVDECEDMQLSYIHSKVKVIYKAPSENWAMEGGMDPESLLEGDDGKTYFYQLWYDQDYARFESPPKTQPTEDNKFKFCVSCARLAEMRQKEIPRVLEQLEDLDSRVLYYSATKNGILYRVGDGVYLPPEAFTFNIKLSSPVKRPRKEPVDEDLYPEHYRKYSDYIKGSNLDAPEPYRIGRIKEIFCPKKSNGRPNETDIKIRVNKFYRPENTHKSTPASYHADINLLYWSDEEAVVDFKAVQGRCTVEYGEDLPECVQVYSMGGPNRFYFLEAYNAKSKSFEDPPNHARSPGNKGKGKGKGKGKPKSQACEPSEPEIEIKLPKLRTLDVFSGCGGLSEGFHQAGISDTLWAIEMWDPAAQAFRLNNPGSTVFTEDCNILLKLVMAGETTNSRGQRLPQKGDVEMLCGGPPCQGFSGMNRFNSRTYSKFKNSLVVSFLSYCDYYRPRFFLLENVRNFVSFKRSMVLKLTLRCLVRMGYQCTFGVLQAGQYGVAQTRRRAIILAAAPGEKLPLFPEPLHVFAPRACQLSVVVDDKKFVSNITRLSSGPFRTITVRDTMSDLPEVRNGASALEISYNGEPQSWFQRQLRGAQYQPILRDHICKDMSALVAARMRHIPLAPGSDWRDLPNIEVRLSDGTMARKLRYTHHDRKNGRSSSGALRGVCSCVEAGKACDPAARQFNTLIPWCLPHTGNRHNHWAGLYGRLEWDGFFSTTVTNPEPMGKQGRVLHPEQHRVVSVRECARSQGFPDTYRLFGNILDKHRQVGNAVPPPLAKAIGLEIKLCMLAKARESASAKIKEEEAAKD
Protocol: The mRNA for DNMT3b3 is the only 3b transcript expressed in T24 cells, and DNMT3a levels could not be assessed because no suitable antibodies against DNMT3a are available. Thus, with reference to FIG. 12, protein extracts were isolated from both treated and untreated T24 (population 3 million cells, treated with 500 μM Zebularine for 48 h), and […] with specific antibodies for DNMT1 and DNMT3b3 as shown in FIG. 12. β-actin was included as a loading control, and the molecular weights of each protein are indicated.

EJ6 tumors = EJ6 tumors in BALB/c nu/nu mice, tumor volume and histology; assay type: in vivo
Protocol: as §2
Tumor volumes (TV) were measured with calipers and calculated using the following formula: tumor volume=LD^2/2 (where L is the longest diameter and D is the shortest diameter). The relative tumor volume (RTV) was calculated as: RTV=TVn/TVo, where TVn is the calculated volume at day n. Animals were sacrificed 24 hours after the last treatment. Tumors were removed, immediately fixed with neutral buffered formalin and then embedded in OCT compound for frozen sections. The frozen sections were processed and stained with hematoxylin and eosin (H&E). All histological examinations were carried out by light microscopy using a Leica DM LB microscope (Leica Microsystems, Germany).

[4] = all treated groups: 500 or 1000 mg/kg daily, intraperitoneal or oral, 18 days

Question: Which results are given for `O=c1ncccn1[C@@H]1O[C@H](CO)[C@@H](O)[C@H]1O` [Zebularine, 1-β-ribofuranosyl-1,2-dihydropyrimidin-2-one]?
Answer: reactivation of silenced hph gene (conidia growth on hygromycin) (silenced hph gene): reactivate the hph gene; methylation level at maximum demethylation [1]: ~47%; p16 gene expression in vivo (RT-PCR) [2]: Reactivation of p16 gene expression; region of conidia toxicity around the filter disk, dim-2 vs wild type (N. crassa): roughly equivalent in both dim-2 and wildtype strains; weight loss [3, 4]: weight loss was minimal; greatest weight loss ([3]; group treated with 1000 mg/kg): ~7%; level of DNMT1 (DNMT1): significant reduction; tumor regression (EJ6 tumors; 1000 mg/kg orally or intraperitoneally, daily, 18 days): tumor regression was observed; tumor growth (relative tumor volume) vs control group (EJ6 tumors; [4]): tumor growth appeared suppressed; ratio of tumor cells to stroma (H&E stained tumor sections), treated versus untreated (EJ6 tumors; tumors removed 24 hours after the last treatment): lower ratio of tumor cells to stroma
